Data set [1] concerns the target T1, 5-hydroxytryptamine receptor 2B (Homo sapiens, UniProt P41595). The data set can be described thus: Agonist activity at human 5-HT2B receptor expressed in CHO-K1 cells assessed as calcium level by FDSS assay. Format: functional, cell-based.
In a further data set the target is Cytochrome P450 2C9 (Homo sapiens, UniProt P11712). The data set can be described thus: Inhibition of human CYP2C9 by LC-MS analysis. The data set is classed as ADME.
Data set [2] is described as follows: Fraction unbound in mouse plasma at 5 uM after 4.5 hrs by LC-MS/MS analysis. Format: ADME, cell-free.
The target of data set [3] is Beta-2 adrenergic receptor (Homo sapiens, UniProt P07550). The data set can be described thus: Antagonist activity at human beta2 receptor expressed in CHO-K1 cells assessed as isoproterenol-induced cAMP level by HTRF assay. Format: functional, cell-based. Background: Cyclic AMP is a second messenger, typically raised through Gs and lowered through Gi signalling.
Beta-2 adrenergic receptor, sequence (P07550 whole entry): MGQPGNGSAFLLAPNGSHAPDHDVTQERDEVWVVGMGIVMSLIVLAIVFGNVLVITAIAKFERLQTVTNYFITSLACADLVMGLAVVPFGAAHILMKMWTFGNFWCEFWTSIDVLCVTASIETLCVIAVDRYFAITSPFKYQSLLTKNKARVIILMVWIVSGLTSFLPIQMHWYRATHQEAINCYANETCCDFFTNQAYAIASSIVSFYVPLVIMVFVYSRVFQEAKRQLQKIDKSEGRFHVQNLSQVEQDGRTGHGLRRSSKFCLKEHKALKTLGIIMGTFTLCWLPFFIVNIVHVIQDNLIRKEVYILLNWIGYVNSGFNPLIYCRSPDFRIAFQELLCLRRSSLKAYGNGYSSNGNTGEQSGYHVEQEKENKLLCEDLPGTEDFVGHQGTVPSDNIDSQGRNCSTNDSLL
A further data set concerns Liver microsome. Briefly: Metabolic stability in human liver microsomes assessed as GSH adduct formation at 40 uM for 1 hr by LC/MS analysis. Format: ADME.
The target in a further data set is T2, Adenosine receptor A3 (Homo sapiens, UniProt P0DMS8).
T2 sequence (P0DMS8 whole entry): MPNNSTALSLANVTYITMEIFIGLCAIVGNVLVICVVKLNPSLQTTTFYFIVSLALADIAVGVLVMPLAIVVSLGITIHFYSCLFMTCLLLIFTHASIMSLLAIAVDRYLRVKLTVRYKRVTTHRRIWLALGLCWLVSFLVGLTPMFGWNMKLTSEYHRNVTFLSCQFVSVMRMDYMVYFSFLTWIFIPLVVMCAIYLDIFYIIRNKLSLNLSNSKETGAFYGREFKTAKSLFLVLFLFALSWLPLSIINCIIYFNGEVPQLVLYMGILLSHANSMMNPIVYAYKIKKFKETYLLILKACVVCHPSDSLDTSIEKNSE
The data set can be described thus: Antagonist activity at human wild-type A3 receptor expressed in CHO-K1 cells assessed as IB MECA-induced cAMP by HTRF assay. Format: functional, cell-based. (TR-FRET usually uses a lanthanide donor and a delayed reading to cut background.)

Data set [4] deals with T3, Delta-type opioid receptor (Homo sapiens, UniProt P41143). Briefly: Agonist activity at human wild-type opioid-delta 1 receptor expressed in CHO-K1 cells assessed as cAMP level by HTRF assay. Format: functional, cell-based.
T3 sequence (P41143 whole entry): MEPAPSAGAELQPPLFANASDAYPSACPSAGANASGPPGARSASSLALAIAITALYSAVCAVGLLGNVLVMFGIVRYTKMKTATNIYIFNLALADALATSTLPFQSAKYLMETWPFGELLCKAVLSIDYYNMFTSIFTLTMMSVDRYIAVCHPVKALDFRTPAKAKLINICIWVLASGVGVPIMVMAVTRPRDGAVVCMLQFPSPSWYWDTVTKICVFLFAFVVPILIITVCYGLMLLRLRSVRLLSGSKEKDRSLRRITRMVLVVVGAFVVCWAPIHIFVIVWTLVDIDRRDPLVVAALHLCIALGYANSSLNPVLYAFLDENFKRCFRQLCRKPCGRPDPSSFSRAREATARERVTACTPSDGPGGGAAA
The target in a further data set is T4, Endothelin-1 receptor (Homo sapiens, UniProt P25101).
T4 sequence (P25101 whole entry): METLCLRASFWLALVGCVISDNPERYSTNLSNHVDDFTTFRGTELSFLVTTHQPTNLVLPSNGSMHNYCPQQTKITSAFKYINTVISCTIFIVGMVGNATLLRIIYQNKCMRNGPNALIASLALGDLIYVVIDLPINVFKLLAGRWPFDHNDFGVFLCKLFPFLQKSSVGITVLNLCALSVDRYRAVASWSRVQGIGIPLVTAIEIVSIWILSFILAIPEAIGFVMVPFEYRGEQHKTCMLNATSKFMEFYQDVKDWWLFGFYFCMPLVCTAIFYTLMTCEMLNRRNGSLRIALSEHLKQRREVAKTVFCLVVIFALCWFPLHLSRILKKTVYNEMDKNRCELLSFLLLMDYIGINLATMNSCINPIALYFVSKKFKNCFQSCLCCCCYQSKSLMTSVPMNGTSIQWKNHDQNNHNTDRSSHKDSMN
Briefly: Antagonist activity at human wild-type ETA receptor expressed in CHO-K1 cells assessed as endothelin-1-induced calcium by HTRF assay. Format: functional, cell-based.

Data set [5] deals with T3, Delta-type opioid receptor. The data set can be described thus: Antagonist activity at human wild-type opioid-delta 1 receptor expressed in CHO-K1 cells assessed as DPDPE-induced cAMP by HTRF assay. The data set is classed as functional, cell-based.
The target in data set [6] is T5, 5-hydroxytryptamine receptor 2C (Homo sapiens, UniProt P28335).
T5 sequence (P28335 whole entry): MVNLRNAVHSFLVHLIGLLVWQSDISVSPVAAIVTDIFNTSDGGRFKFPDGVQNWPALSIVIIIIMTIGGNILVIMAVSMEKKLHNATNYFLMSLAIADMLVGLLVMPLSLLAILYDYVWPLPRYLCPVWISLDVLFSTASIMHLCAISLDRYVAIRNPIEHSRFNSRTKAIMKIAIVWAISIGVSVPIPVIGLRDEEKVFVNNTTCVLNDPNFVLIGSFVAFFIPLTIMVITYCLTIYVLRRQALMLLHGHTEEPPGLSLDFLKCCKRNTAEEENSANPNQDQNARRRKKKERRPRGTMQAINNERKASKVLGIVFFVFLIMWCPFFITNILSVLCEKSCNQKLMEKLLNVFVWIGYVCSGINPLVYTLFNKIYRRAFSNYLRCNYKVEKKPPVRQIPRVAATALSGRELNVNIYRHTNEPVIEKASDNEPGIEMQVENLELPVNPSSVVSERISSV
Briefly: Agonist activity at human 5-HT2C receptor expressed in CHO-K1 cells assessed as calcium level by FDSS assay. The data set is classed as functional, cell-based.

Data set [7] concerns the target T1, 5-hydroxytryptamine receptor 2B. Briefly: Antagonist activity at human 5-HT2B receptor expressed in CHO-K1 cells assessed as seretonin-induced calcium level by FDSS assay. Format: functional, cell-based.
A short description of data set [8]: Chemical stability of compound in 0.1N HCL and 0.5% H2O2 assessed as compound remaining at 10 mg/ml after 1 day. Format: physicochemical. The following applies: read-out: Stability.
In a further data set the test system is Salmonella typhimurium. The data set can be described thus: Mutagenicity in Salmonella typhimurium by Ames test. The data set is classed as toxicity, organism-based. The following applies: salmonella enterica subsp. enterica serovar typhimurium.
A further data set has as its system human MDR1. Briefly: Efflux ratio of permeability across basolateral to apical side over apical to basolateral side in MDCK cells expressing human MDR1 at 5 uM by LC-MS/MS method. The data set is classed as ADME, cell-based, Canis lupus familiaris. The following applies: dog.

A word on the EC50: it is the midpoint of the concentration-response curve. One may read the IC50 as the point on the concentration scale where inhibition reaches its midpoint. As a reminder, the fraction unbound is the share of the substance not bound to proteins or other matrix. High values mean much free substance, low ones little free substance. One may read the efflux ratio as the permeability from basolateral to apical divided by that in the opposite direction, in the common usage.

T1 sequence (P41595 whole entry): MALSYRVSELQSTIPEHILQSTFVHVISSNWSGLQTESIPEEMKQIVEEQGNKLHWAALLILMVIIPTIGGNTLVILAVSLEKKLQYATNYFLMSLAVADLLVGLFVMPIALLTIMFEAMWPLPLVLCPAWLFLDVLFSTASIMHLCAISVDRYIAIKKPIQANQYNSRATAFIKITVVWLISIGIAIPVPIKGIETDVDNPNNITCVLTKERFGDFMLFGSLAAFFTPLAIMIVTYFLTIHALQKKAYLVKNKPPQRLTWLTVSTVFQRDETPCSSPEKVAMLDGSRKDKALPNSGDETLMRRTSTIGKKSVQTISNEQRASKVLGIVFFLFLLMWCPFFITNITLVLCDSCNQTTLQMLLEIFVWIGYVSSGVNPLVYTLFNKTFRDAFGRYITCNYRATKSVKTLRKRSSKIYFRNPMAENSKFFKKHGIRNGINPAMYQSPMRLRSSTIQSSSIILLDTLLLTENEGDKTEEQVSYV
Cytochrome P450 2C9, sequence (P11712 whole entry): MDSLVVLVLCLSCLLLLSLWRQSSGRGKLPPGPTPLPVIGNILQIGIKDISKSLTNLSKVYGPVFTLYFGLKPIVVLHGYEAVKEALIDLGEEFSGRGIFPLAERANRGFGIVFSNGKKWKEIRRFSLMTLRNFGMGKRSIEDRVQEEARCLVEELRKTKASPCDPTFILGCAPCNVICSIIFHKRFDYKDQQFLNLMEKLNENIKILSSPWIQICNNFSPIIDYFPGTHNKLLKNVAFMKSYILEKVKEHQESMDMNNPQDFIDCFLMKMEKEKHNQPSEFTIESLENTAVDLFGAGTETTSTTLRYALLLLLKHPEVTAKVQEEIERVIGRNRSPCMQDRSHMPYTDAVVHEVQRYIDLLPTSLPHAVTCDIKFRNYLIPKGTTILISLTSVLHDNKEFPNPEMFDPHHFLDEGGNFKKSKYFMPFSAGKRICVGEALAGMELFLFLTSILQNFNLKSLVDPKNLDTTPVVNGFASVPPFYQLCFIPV

Consider `CB1C=Cc2c(cccc2OCC(O)CN(C)C)N1` (stereo not drawn), for which the EC50 in [1], in [4] and in [6] was more than 5.01 µM in each case. Further, the IC50 against Cytochrome P450 2C9 is more than 10 µM; in [3], 0.1 µM; on Adenosine receptor A3 it was more than 5.01 µM; at Endothelin-1 receptor it was more than 5.01 µM; in [5] it was more than 5.01 µM; in data set [7] it was more than 5.01 µM. The fraction unbound at 4.5 h, 5 µM in [2] is 0.21. In addition, the Stability entry with Liver microsome is on record as “Stable”.

Turning to `CB1C=Cc2cccc(OCC(O)CNC(C)C)c2N1` (stereo not drawn), the half-maximal effective concentration (EC50) in [1] and in [6] was more than 5.01 µM in each case. Further, the IC50 at Cytochrome P450 2C9 is more than 10 µM; in data set [3], 0.501 µM; at Adenosine receptor A3, more than 5.01 µM; on Endothelin-1 receptor, more than 5.01 µM; in [7] it was more than 5.01 µM. Besides, in data set [8], the remaining at 24 h, 10 mg/ml turned out to be 0%. This molecule yielded an unbound share (fraction unbound) at 4.5 h, 5 µM in [2] of 0.074. Further, in the data set on Liver microsome, the Stability entry was “Stable”. The Activity entry in the data set on Salmonella typhimurium is listed as “Non-toxic”. For the same molecule, the efflux ratio at 5 µM with human MDR1 came to 2.1.

(Values after ChEMBL document CHEMBL3734721 (J Med Chem, 2015).)
